Assay: gradient 5% acetonitrile 3 min, to 50% in 2 min, to 85% in 15 min, held 3 min, 100 µL/min
Conditions: column: Zorbax Extend-C18 2.1 x 50 mm; eluents: water / acetonitrile, 0.1% formic acid
How it was run: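 Values are retention times taken from adduct peaks that software picked and an analyst inspected. The pure standards were run as mixtures of ~100 molecules on HPLC linked to a quadrupole time-of-flight mass spectrometer, in positive and negative ionization mode. A Zorbax Extend-C18 column (2.1 × 50 mm, 1.8 μm) was used at 100 μL/min with water and acetonitrile, each including 0.1% formic acid.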

Structure (SMILES) | RP-LC retention time [s]
CCN1CCN(CCNC(=O)C2CCCN(C(=O)c3[nH]c(C)c(C(=O)OC)c3C)C2)CC1 (stereo not drawn) | 565
COc1ccc(OC)c(-c2cc(C(=O)Nc3ccc4c(c3)CCC(=O)N4)[nH]n2)c1 | 681
O=C(Nc1ccccc1F)NC1CCN(C(=O)N2C[C@H]3C[C@H](C2)[C@H]2CCCC(=O)N2C3)CC1 | 677
CS(=O)(=O)N1C[C@H]2CCN(Cc3ccc(F)cc3F)C[C@H]21 | 584
CN1C(=O)c2cccnc2Sc2cc(NC(=O)C3CCCCC3)ccc21 | 828
CCC1CCCCN1CCNC(=O)CCc1cc2ccc(C)cc2[nH]c1=O (stereo not drawn) | 621
Cc1cc(OCCCS(C)(=O)=O)cc(C)c1-c1cccc(COc2ccc3c(c2)OC[C@H]3CC(=O)O)c1 | 1040
Cc1ccccc1NC(=O)/C=N/O | 636
NC(=O)C1CCN(C(=O)CSc2nnnn2-c2ccccc2)CC1 | 621
O=C(NC1CCCC1)c1nc(C(=O)N2CCN(c3ccccc3F)CC2)cs1 | 940
COc1ccc(C)c2sc(NCCCn3ccnc3)nc12 | 552
CCN1c2cc(C)ccc2-n2cccc2C12CCN(C(=O)NCC(=O)OC)CC2 | 895
COc1ccc(-c2nnc(-c3ccc(OC)c(S(=O)(=O)N4CCOCC4)c3)o2)cc1OC | 768
Cc1cc(-c2c(C)sc(C)c2S(=O)(=O)N2CCN(c3ccccc3F)CC2)n[nH]1 | 971
COc1cc(NC(=O)C2CCN(S(=O)(=O)c3ccc4c(c3)CCCC(=O)N4)CC2)cc(OC)c1 | 762
CCCn1nnc(NCc2ccc(-c3cccc(Cl)c3C)o2)n1 | 1130
Cc1cc(C(N)=O)c2cccc(Cl)c2n1 | 621
CC(C)c1ccccc1NC(=O)C1CCN(S(C)(=O)=O)c2ccccc2O1 (stereo not drawn) | 945
CN(C)S(=O)(=O)c1ccc(C(=O)NCc2ccsc2)cc1 | 730
Cn1cc(C2=CCN(C(=O)NCc3cccc(F)c3)CC2)c2cccnc21 | 791
COc1cccc(-c2nc(Cn3cnc4nc5c(cc4c3=O)CC(C)CC5)c(C)o2)c1OC (stereo not drawn) | 941
COc1ccc(C(=O)N2CCC3(CC2)NC(=O)c2ccc(Cl)cc2N3)c(C)c1 | 800

Structure (SMILES) | RP-LC retention time [s]
Cc1ccc(NC(=O)N2CCC(n3cnnc3C3CC3)C2)c(Cl)c1 (stereo not drawn) | 663
O=C(CC1CCOCC1)N1CCN(C(=O)c2ccco2)CC1 | 612
CC(C)[C@H](CO)Nc1nc(Sc2cccc(N)c2)c2ncn(C(C)C)c2n1 | 706
CCc1nc(-c2csc(S(=O)(=O)N3CCCC(C(=O)NC4CCCCCC4)C3)c2)no1 (stereo not drawn) | 1060
CC(C)c1cc(N2CCN(C(=O)C3CC3)CC2)nc2nncn12 | 586
CN1C(=O)C2CCCCN2c2ccc(C(=O)NCCc3cccs3)cc21 (stereo not drawn) | 872
Cc1ccc(NC(=O)C2CCCN(C(=O)C3Sc4ccccc4NC3=O)C2)cc1F (stereo not drawn) | 844
Cc1ccc(-n2cc3c(N4CCCC(C(=O)NCCC5=CCCCC5)C4)ncnc3n2)cc1 (stereo not drawn) | 792
CCOC(=O)c1sc(NC(=O)C2CC(=O)N(c3n[nH]c4ccccc34)C2)nc1C (stereo not drawn) | 750
CCn1ccc2sc(C)c(C(=O)NCCC(C)C)c2c1=O | 806
CCCn1ccc2sc(C)c(C(=O)NCCOC)c2c1=O | 652
CC(C(=O)NCc1ccco1)C1CCN(C(=O)c2cc3cc(Cl)ccc3[nH]2)CC1 (stereo not drawn) | 841
CCc1c(C(=O)NNC(=O)[C@@H](O)c2cc(F)cc(F)c2)ccc(O)c1C | 807
COC(=O)c1ccc(NC(=O)Cn2nc3n(c2=O)CCCC3)cc1 | 647
O=C(Nc1cccc(F)c1)C1CCN(S(=O)(=O)c2cc(C(=O)N3CCCC3)cs2)CC1 | 829
Cc1cc2nn(CC(=O)Nc3ccc(C)c(F)c3)c(=O)n2c(N2CCCC2)n1 | 805
Cc1ccc(NC(=O)C2(C)Oc3cccnc3N(C(C)C)C2=O)c(C)c1 (stereo not drawn) | 1040
CCCn1cc(C(=O)NCC(C)C)c(S(=O)(=O)N2CCN(c3ccccc3OCC)CC2)n1 | 1180
CCc1cc(C(=O)N2CCCC2c2cccc(F)c2)no1 (stereo not drawn) | 944
Cc1cccc(Oc2nccnc2N2CCC(C(=O)NCCC3=CCCCC3)CC2)c1 | 1130
CC(=O)c1c(C)oc2ccc(NS(=O)(=O)c3cccc([N+](=O)[O-])c3)cc12 | 822
CCS(=O)(=O)N1CCCN(C2=NS(=O)(=O)C(c3ccc(C)c(C)c3)=C2C)CC1 | 872

Results, then the compound that gave them:

RP-LC retention time [s] | Structure (SMILES)
947 | CC(Cc1ccco1)NC(=O)c1ccc2nc(Cc3ccccc3)oc2c1 (stereo not drawn)
826 | CCc1nnc(NC(=O)CSc2nnc(-c3ccc(Cl)cc3)o2)s1
950 | COc1ccc(-c2nn(CCCC(=O)NCCc3ccc(C)cc3)c(=O)c3noc(C)c23)cc1
868 | Cc1nc(-c2noc(-c3ccccc3)n2)cn1CC(=O)N1CCN(c2ccc(F)cc2)CC1
599 | O=C(NC1CCCN(c2cc(-c3ccncc3)[nH]n2)C1)c1ccc(F)cc1 (stereo not drawn)
701 | Cc1cccc(NC(=O)Cn2ccc3sccc3c2=O)c1
736 | COc1ccc(OC)c(S(=O)(=O)NCC(O)Cc2ccccc2)c1 (stereo not drawn)
753 | CCc1noc2nc(C)n(CC(=O)NCc3ccccc3)c(=O)c12
1200 | CCSc1ccccc1C(=O)Nc1cccc2ccc(OC)nc12
1350 | Brc1ccc(-c2noc(Cc3nc(-c4ccccc4)cs3)n2)cc1
1170 | COc1ccc(-c2csc(NC(=O)C3(c4ccccc4)CCCC3)n2)cc1OC
1100 | Cc1cc(C)cc(NC(=O)Cn2cnc3c(sc4nc(-c5ccccc5)ccc43)c2=O)c1
906 | Cc1ccc(NC(=O)Cn2c(=O)n(-c3ccccc3)c3ncccc32)cc1C
817 | COC(=O)C1=CN(c2ccccc2)c2ccc(F)cc2S1(=O)=O
662 | Cc1ccc(-c2cc3c(=O)n(Cc4noc(CN5CCN(C)CC5)n4)ccn3n2)cc1C
919 | CCc1nc2ccccc2c(=O)n1Cc1noc(-c2ccc(C#N)cc2)n1
1220 | O=C(CC1CCCC1)Nc1nc(-c2cccc3ccccc23)cs1
1390 | Cc1cc(C)c2c(=O)n(Cc3nc(-c4ccccc4Cl)oc3C)c(=O)n(Cc3ccco3)c2n1
816 | CN(CCc1noc(-c2ccc(C(=O)N3CCCC3)cc2)n1)C(=O)Cc1ccc(Cl)cc1
946 | CCC(c1cccs1)N1C(=O)[C@H]2CN(S(=O)(=O)c3ccccc3)C[C@H]2C1=O (stereo partly drawn)
701 | Cc1ccc(Nc2c(-c3ccccc3O)nc3cc(C)ccn23)cc1
910 | O=C(Nc1cnc(-c2ccc(Cl)cc2)nc1)C1CCCO1 (stereo not drawn)

RP-LC retention time [s] | Structure (SMILES)
897 | Cc1oc(-c2ccc(NC(=O)CCc3ccccc3)cc2)nc1Cn1cccn1
684 | Cc1noc(COC2CCCN(C(=O)NCc3ccccc3)C2)n1 (stereo not drawn)
640 | O=C(O)c1nnn(-c2ccc3c(c2)OCCO3)c1-c1ccccn1
789 | O=C(c1ccc(OCC2CCCN2C(=O)c2ccccc2)cc1)N1CCCC1 (stereo not drawn)
704 | CCN(CC)C(=O)c1ccc(-c2nc3cc(NS(=O)(=O)c4cc(F)ccc4F)ccc3n2C)cc1
880 | O=C(Cn1ccc2ccn(Cc3ccccc3F)c2c1=O)NCc1ccc(F)cc1F
903 | O=C(CCn1nnc2cc(-c3noc(-c4ccc(F)cc4)n3)ccc21)N1CCCC1
826 | O=C(Cn1c(=O)n(Cc2ccc3c(c2)OCO3)c(=O)c2ncccc21)N1CCCc2ccccc21
1040 | Cc1ccc(-c2noc(Cc3nc(-c4cccc(Cl)c4)cs3)n2)cc1
647 | CC(=O)N1CCc2cc(-c3ccc(C(=O)N4CCN(Cc5ccc6c(c5)OCO6)CC4)cc3)ccc21
656 | Cc1noc(CNC(=O)C2CCN(C(=O)Cc3cn(C)c4ccccc34)CC2)n1
731 | CC(=O)Nc1ccc(-c2noc(C3CCCN(C(=O)c4ccoc4)C3)n2)cc1 (stereo not drawn)
1080 | CCOc1ccc2cccc(NC(=O)c3cnccn3)c2n1
919 | COc1cccc(-c2ccnc3nc(-c4ccccc4)nn23)c1
1090 | O=C(CCc1conc1-c1ccc(F)cc1)N1CCN(c2ccc(Cl)cc2)CC1
869 | CN(Cc1ccccc1)C(=O)c1cn(-c2cc(N3CCSCC3)ncn2)cn1
646 | CCCCCn1c(=O)c2ccccc2n(Cc2nc(-c3cc(OC)c(OC)c(OC)c3)no2)c1=O
642 | COc1cc(NC(=O)CCc2c(-c3ccc(Cl)cc3)nc3ccccn23)cc(OC)c1OC
768 | COc1cccc(/C=C/c2nccc3ccccc23)c1OC
557 | O=C(CCc1c(-c2ccc(Br)cc2)nc2ccccn12)NCc1cccnc1
1130 | CC1=NS(=O)(=O)N(Cc2ccccc2)C=C1C(=O)OCc1noc(-c2cccc(Cl)c2)n1
883 | O=S(=O)(NCc1nc(-c2ccc(NS(=O)(=O)c3cccs3)cc2)no1)c1ccccc1

Reference: the METLIN SMRT retention time set (Domingo-Almenara et al. 2019)
